Ki data for 8 molecules are collected here from ChEMBL document CHEMBL1132430, “Protein kinase C ligands based on tetrahydrofuran templates containing a new set of phorbol ester pharmacophores” (J Med Chem, 1999).

SMILES strings stand for the structures.

The target of this test is Protein kinase C alpha type (Homo sapiens, UniProt P17252). Description: Displacement of [3H-20]-phorbol 12,13-dibutyrate(PDBU) from recombinant Protein kinase C alpha. In general terms: In a radioligand displacement assay an active substance lowers the binding of a labelled ligand.
What is called Ki is the equilibrium dissociation constant of an inhibitor or competing ligand from its target. For the molecule `CCCCCCCCCCCCCC(=O)OC[C@]1(CO)CC[C@H](CC(=O)OC)O1`, the Ki amounted to 2720 nM.

For the molecule `CCCCCCCC/C=C\CCCCCCCCOC(=O)/C=C1/COC(CO)(COC(C)=O)C1` (stereo not drawn), the Ki turned out to be 1860 nM.

On to `CCCCCCCCCCCCCC(=O)OCC1(CO)C/C(=C/C(=O)OC)CO1` (stereo not drawn), for which the Ki came out at 350 nM.

Regarding `CCCCCCCCCCCCCC(=O)OCC1(CO)C/C(=C\C(=O)OC)CO1` (stereo not drawn), the inhibition constant Ki is 350 nM.

Consider `CCCCCCCCCCCCCCOC(=O)C[C@@H]1CC[C@@](CO)(COC(=O)CCCCC)O1`, for which the Ki stood at 12800 nM.

On to `CCCCCCCC/C=C\CCCCCCCCOC(=O)/C=C1\COC(CO)(COC(C)=O)C1` (stereo not drawn), for which the Ki was found to be 850 nM.

For the molecule `CCCCCCCCCCCCCCOC(=O)C[C@H]1CC[C@@](CO)(COC(=O)CCCCC)O1`, the Ki was 2380 nM.

Turning to `CCCCCCCCCCCCCC(=O)OC[C@]1(CO)CC[C@@H](CC(=O)OC)O1`, the Ki came out at 10800 nM.
